# Tests used:
# Translocator protein [1] = biological target: T1, Translocator protein (Rattus norvegicus, UniProt P16257); experiment: Inhibition of binding of [3H]-PK 11195 to peripheral-type benzodiazepine receptor (PBR) from rat cortex homogenate
# Translocator protein [2] = biological target: T1, Translocator protein; experiment: Binding affinity against peripheral-type benzodiazepine receptor (PBR) from rat cortex homogenate using [3H]-PK 11195 as radioligand
# Translocator protein [3] = biological target: T1, Translocator protein; experiment: Displacement [3H]-PK 11195 from rat adrenal peripheral-type benzodiazepine receptor (PBR)
# Translocator protein [4] = biological target: T1, Translocator protein; experiment: Displacement of [3H]-Ro- 5-4864 from rat adrenal peripheral-type benzodiazepine receptor (PBR)
# T1 sequence (P16257 whole entry, looked up): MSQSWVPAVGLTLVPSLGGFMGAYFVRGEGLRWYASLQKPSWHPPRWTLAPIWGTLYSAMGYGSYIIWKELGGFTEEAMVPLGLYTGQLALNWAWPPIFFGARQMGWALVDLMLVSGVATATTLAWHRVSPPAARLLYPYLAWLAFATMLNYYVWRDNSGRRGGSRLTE
Compound,IC50 (Translocator protein [1]) [nM],Ki (Translocator protein [2]) [nM],Ki (Translocator protein [3]) [nM],Ki (Translocator protein [4]) [nM]
CC(=O)C1=C(c2ccccc2)Oc2ccccc2-n2cccc21,64.6,25.2,,
CC(=O)OC1=C(c2ccc3ccccc3c2)Oc2ccccc2-n2cccc21,76.6,30,,
CCC1=C(OC(C)=O)c2cccn2-c2ccccc2O1,> 5000,,,
COC(=O)C1=C(c2ccccc2)Oc2ccccc2-n2cccc21,148,57.8,,
CN(C)C(=O)OC1=C(c2ccccc2)Sc2ccccc2-n2cccc21,,3.5,,
CC(=O)OC1=C(c2ccc(Cl)cc2)Sc2ccccc2-n2cccc21,,11.7,,
CC(=O)OC1=C(c2ccccc2)Oc2cc3ccccc3cc2-n2cccc21,278,108,,
CCN(CC)C(=O)OC1=C(c2ccc(C)cc2)Oc2ccccc2-n2cccc21,0.94,0.36,1.9,1.9
CN(C)C(=O)OC1=C(c2ccccc2)Sc2c(Cl)cccc2-n2cccc21,,1.8,2.5,2.6
CCN(CC)C(=S)OC1=C(c2ccccc2)Oc2ccccc2-n2cccc21,3.8,1.5,,
CC(=O)OC1=C(c2ccccc2)Sc2ccc(C)cc2-n2cccc21,,263,,
CN(C)C(=O)OC1=C(c2ccc(N=[N+]=[N-])cc2)Oc2ccccc2-n2cccc21,3.6,1.4,4.8,3.6
O=C(OC1=C(c2ccccc2)Oc2ccccc2-n2cccc21)C1CCCCC1,81.9,32,,
CC(=O)OC1=C(c2ccccc2)Sc2cc(C)ccc2-n2cccc21,,44,,
CC(=O)OCC1=C(c2ccccc2)Oc2ccccc2-n2cccc21,1930,754,,
CC(=O)OC1=C(c2ccccc2)Sc2ccccc2-n2cccc21,,7.6,,
CC(=O)OC1=C(c2ccc(C)cc2)Oc2ccccc2-n2cccc21,2.3,0.91,2.8,1.7
CCN(CC)C(=O)OC1=C(c2ccccc2)Oc2ccccc2-n2cccc21,0.68,0.26,,
CCC1=C(OC(=O)N(C)C)c2cccn2-c2ccccc2O1,589,230,,
COc1ccc(C2=C(OC(=O)c3cccnc3)c3cccn3-c3ccccc3S2)cc1,> 100000,,,
CC(=O)OC1=C(c2ccccc2)Oc2ccccc2-n2cccc21,12.1,4.7,,
CN(C)C(=O)OC1=C(c2ccccc2)Oc2c(Cl)cccc2-n2cccc21,1.3,0.51,,

# From ChEMBL document CHEMBL1129620 (J Med Chem, 1996)
